Reference: patent publication US10822431B2, “Fucoidan preparation, zinc-bound fucoidan and use thereof” (South Product Ltd., priority 2015, dated 2020)

Tested on: Hep G2 cells
Test: Cytotoxicity test using Hep G2 cells (MTT assay)
Format: cell-based
Conditions: up to 500 μg/ml; zinc only as a comparison
Procedure: Cytotoxicity Test Using Hep G2 Cells:
[…] P. (2000). “Cytotoxicity and Viability Assays”. In Masters, J. R. W. Animal Cell Culture: A Practical Approach, 3rd) using Hep G2 cells were conducted on these preparations.

## [Zn] [zinc]
  Cytotoxicity of Hep G2 cells: no cytotoxicity of Hep G2 cells was confirmed
